Experiment [1] addresses T1, Herpes simplex type 2 deoxyribonucleic acid (DNA) polymerase (Human herpesvirus 2, UniProt P89453).
T1 construct: made in house; host or cells: Herpes virus infected Wi-38 cells (native viral enzyme, not recombinant; DEAE-cellulose and phosphocellulose chromatography)
T1 sequence (P89453 1-1240): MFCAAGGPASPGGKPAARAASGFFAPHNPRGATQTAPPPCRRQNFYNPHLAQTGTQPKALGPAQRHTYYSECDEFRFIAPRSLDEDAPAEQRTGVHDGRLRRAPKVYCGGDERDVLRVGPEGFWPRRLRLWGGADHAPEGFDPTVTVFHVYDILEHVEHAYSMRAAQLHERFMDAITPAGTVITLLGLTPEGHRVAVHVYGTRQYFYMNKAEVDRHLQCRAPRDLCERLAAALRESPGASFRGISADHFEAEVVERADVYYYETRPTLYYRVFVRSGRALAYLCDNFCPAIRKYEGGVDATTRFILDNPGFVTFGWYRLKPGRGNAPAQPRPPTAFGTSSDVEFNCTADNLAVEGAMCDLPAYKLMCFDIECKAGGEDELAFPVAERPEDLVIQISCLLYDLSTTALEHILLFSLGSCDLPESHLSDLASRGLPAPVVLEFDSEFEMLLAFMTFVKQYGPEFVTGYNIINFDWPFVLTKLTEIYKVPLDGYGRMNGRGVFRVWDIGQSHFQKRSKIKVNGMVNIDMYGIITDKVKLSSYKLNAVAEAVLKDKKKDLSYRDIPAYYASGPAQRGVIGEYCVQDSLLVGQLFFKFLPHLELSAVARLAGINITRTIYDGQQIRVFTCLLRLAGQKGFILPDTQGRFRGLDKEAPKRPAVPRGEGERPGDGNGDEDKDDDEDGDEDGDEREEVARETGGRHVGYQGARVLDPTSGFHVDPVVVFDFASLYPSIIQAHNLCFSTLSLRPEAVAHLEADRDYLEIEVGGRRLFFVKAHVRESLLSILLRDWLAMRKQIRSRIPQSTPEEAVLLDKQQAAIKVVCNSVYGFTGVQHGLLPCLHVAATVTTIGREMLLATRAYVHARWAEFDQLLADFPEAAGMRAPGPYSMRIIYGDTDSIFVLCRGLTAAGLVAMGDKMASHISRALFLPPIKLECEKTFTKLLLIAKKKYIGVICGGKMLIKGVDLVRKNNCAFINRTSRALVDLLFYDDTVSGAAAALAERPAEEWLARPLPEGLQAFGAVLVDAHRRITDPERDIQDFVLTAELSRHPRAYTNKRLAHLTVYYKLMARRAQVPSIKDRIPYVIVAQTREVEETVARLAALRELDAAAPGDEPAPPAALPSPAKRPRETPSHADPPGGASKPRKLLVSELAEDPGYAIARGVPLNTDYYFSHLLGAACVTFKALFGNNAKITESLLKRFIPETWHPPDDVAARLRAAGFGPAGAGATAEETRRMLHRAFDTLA
In words: Viral DNA polymerase assay. Type of experiment: biochemical, herpes simplex virus type 2. Conditions: 50% inhibition of herpes simplex type 2 DNA polymerase; read-out: Concentration (μg/ml) giving 50% Percent Inhibition (converted). How it is done: Isolation and Purification of Herpes Simplex Type 2 Deoxyribonucleic Acid (DNA) Polymerase
The DNA polymerase was isolated according to the procedure of Smith and Gallo (1972) which involved column chromatography on DEAE-cellulose and phosphocellulose. However, buffer containing 20% glyceryl instead of 10% was used. The final enzyme preparation has a specific activity of 313 unit/mg. for herpes simplex virus type 2.
Viral Deoxyribonucleic Acid (DNA) Polymerase Assay
The reaction mixture (0.2 ml.) contains 10 μM of 2'-deoxyadenosine-5'-triphosphate, 2'-deoxycytidine-5'-triphosphate, 2'-deoxyguanosine-5'-triphosphate, and 2.5 μM tritium labeled thymidine-5'-triphosphate which was appropriately diluted with unlabeled dTTP to give 880 counts per minute per pico-mole, 10 μg of activated calf thymus DNA 50 mM Tris-HCl buffer (pH 8.0), 3mM MgCl2, 100 mM KCl and 1 mM dithiothritol. The amounts of enzyme used in each reaction was chosen to give a linear rate for at least 30 minutes at 37° C. The reaction was terminated by the addition of 3 ml. of cold 5% trichloroacetic acid - 0.01 M sodium pyrophosphate. The acid-insoluble material was collected, washed twice on glass filter discs (Reeve Angel 984-H) and the incorporated ^3 H-dTMP was determined by a liquid scintillation counter.

In experiment [2] the test system is herpes simplex infections. Nature of the experiment: Topical test against herpes simplex infections in CF mice. Conditions: 10 mice per group, topical 2% aqueous solution, 11 applications, 14 day test. Type of experiment: in vivo. How it is done: The following test was applied to determine the effectiveness of the carboxylic esters of phosphonoacetic acid against herpes simplex infections in mice. The compounds tested included the compounds shown above as II and III. Also included were a standard virus control as well as a normal (no virus) control.
Herpes virus (10^7 TCID50 /ml) was applied topically (0.05 ml) to the denuded skin and impregnated into the dermis with a 24-gauge sterile hypodermic needle. In untreated animals, herpes lesions or vesicles usually develop in 3 to 5 days. The lesions form bands which extend over the denuded area. After approximately 10 days, mice usually develop a paralysis which results in their death. The test was allowed to continue for a total of 14 days.
Some of the animals were treated topically by having the drug applied to the site of infection as a 2% aqueous solution 2 hours after the virus was introduced into the skin, and twice daily for 5 consecutive days. The drug was applied a total of 11 times. A single application of a 2% drug solution delivered approximately 2 mg of material.
The Mann-Whitney "U" Test was used to statistically analyze the herpes infection in mice by making paired comparisons between the treated and untreated virus control groups. […]

For experiment [3], the system named is herpes simplex virus (HSV) type 1 or type 2. Nature of the experiment: Antiviral activity by plaque reduction method. More on the design: key: 0 = inactive; +2 = moderate activity; +4 = very active. It is filed as cell-based, herpes simplex virus (in rabbit kidney cells). The settings on record: rabbit kidney cells, plaques counted 3 to 4 days after infection. The procedure:
Determination of Antiviral Activity by Plaque Reduction Method
The inhibitory effect of new compounds upon herpes simplex virus (HSV) type 1 or type 2 was analyzed by the plaque reduction assay. Confluent monolayers of rabbit kidney cells grown in 60 mm plastic petri dishes were infected with HSV by adsorption for 1 hour at room temperature. The appropriate concentration of the test compound was added at the time of initial virus infection. Following virus adsorption the cells were overlayed with Eagle's medium (BME) supplemented with 10% fetal bovine serum, 0.225% NaHCO3 and 0.5% methycellulose. The appropriate concentration of the test compound was also added to this overlay. Infected cultures were then incubated at 37° C. for the remainder of the test. Three to four days following virus infection, each culture was stained with crystal violet and the herpes virus induced plaques counted.

`CCOC(=O)CP(=O)(O)O` [Compound II, Ethyl Phosphonoacetate]: the IC50 in experiment [1] was 23.2 µM. In experiment [2], the “No. of Mice Dead” value is recorded as 3 and the “No. of Mice Paralyzed” value was 2. The Inhibition of plaques entry in experiment [3] is given as “+4”.

Consider `COC(=O)CP(=O)(O)O` [Compound III, Methyl Phosphonoacetate], for which, in experiment [1], the IC50 was 45.4 µM. In addition, in experiment [2], the “No. of Mice Dead” value came out at 5 and the “No. of Mice Paralyzed” value worked out at 2. The Inhibition of plaques entry in experiment [3] is “+2”.
